Laboratory results reported in the NIST ThermoML archive (doi:10.1016/j.jct.2004.09.022).
± gives the expanded uncertainty stated by the source.

How the values were obtained:
[1] = refractive index (Na D-line) (dimensionless); conditions: 293.15 K; 101.33 kPa; Liquid; Standard Abbe refractometry
[2] = Liquid; for mass density: 293.15 K, 101.33 kPa

Compound | refractive index [1] | mass density ([2]; Vibrating tube method) | Normal boiling temperature ([2]; Fisher boiling point apparatus) | mass density [2] | Normal boiling temperature [2]
CC(C)CCO [3-methylbutan-1-ol] | 1.4075 ± 0.0008 | 808.4 ± 2.2 kg/m3 | 131.40 ± 0.2 °C |  | 
O [water] | 1.3324 ± 0.0008 |  |  | 999.9 ± 0.6 kg/m3 | 100.1 ± 0.2 °C
